The text below walks through data of patent US20230227453A1 (priority 2020, published 2023).

Usually IC50 stands for the point on the concentration scale where inhibition reaches its midpoint. The low end stands for higher potency, the high end for lower potency. For orientation: EC50 means the concentration at which the effect is half-maximal.

The target in test [1] is T1, 5-HT2C edited (accession number AAF35842.1) (Homo sapiens, UniProt P28335, I156V/I160V/N158S). Put plainly: biochemical. It counts as binding.
Target sequence in this assay (P28335 whole entry I156V/N158S/I160V, looked up): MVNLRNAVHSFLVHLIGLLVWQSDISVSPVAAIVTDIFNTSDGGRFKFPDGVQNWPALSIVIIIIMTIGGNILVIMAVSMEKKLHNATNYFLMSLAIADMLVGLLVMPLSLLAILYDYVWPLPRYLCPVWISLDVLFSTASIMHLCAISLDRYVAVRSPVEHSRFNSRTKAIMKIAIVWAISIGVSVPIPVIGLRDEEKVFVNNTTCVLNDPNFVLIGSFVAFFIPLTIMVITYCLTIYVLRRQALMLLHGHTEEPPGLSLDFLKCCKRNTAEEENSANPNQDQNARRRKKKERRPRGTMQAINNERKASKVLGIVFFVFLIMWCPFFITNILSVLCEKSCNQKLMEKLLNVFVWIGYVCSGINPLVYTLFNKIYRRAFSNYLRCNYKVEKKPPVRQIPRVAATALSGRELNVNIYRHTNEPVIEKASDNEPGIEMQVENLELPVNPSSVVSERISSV
The target of test [2] is T1, 5-HT2C edited (accession number AAF35842.1). Put plainly: cell-based.
Target sequence in this assay (P28335 33-458 I156V/N158S/I160V limits assumed): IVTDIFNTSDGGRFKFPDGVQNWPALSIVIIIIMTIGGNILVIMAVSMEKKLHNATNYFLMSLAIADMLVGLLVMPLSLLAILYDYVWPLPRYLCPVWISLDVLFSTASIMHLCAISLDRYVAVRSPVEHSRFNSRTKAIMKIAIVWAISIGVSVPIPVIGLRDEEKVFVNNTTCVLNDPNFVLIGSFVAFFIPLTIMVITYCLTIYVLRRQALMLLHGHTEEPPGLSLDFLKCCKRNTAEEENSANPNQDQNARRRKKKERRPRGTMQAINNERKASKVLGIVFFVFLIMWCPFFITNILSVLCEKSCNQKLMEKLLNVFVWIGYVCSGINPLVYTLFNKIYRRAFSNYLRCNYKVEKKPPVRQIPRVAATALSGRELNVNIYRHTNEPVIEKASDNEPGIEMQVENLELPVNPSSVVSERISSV

In the case of `Cc1ccc2c3c(n(C)c2n1)CCNCC3` [Example 10, 2,10-dimethyl-5,6,7,8,9,10-hexahydropyrido[3′,2′:4,5]pyrrolo[2,3-d]azepine], in test [1], the IC50 lay within 101 to 1000 nM. The EC50 in test [2] fell in the range of 10 to 100 nM.
For the compound `Cc1ccc2c3c([nH]c2n1)CCNCC3` [Example 8, 2-methyl-5,6,7,8,9,10-hexahydropyrido[3′,2′:4,5]pyrrolo[2,3-d]azepine], the IC50 in test [1] fell in the range of 101 to 1000 nM. The compound also came in with an EC50 in test [2] of 10 to 100 nM.
Taken in the same sequence, the figures for `COc1ccc2c3c([nH]c2n1)CCN(C)CC3` [Example 1, 2-methoxy-7-methyl-5,6,7,8,9,10-hexahydropyrido[3′,2′:4,5]pyrrolo[2,3-d]azepine] were 1000 to 10000 nM and 101 to 1000 nM.
Compound `CN1CCc2c(n(C)c3ncc(Cl)cc23)CC1` [Example 30, 3-chloro-7,10-dimethyl-5,6,7,8,9,10-hexahydropyrido[3′,2′:4,5]pyrrolo[2,3-d]azepine] displayed an IC50 in test [1] of 10 to 100 nM. Further, in test [2], the EC50 lay within 10 to 100 nM.
`Cc1ccc2c3c(n(C)c2n1)CCN(C1COC1)CC3` [Example 11, 2,10-dimethyl-7-(oxetan-3-yl)-5,6,7,8,9,10-hexahydropyrido[3′,2′:4,5]pyrrolo[2,3-d]azepine] yielded a half-maximal inhibitory concentration (IC50) in test [1] of 1000 to 10000 nM. Also, the EC50 in test [2] was more than 10000 nM.
Compound `CN1CCc2[nH]c3nc(Br)ccc3c2CC1` [Example 19, 2-bromo-7-methyl-5,6,7,8,9,10-hexahydropyrido[3′,2′:4,5]pyrrolo[2,3-d]azepine] yielded an IC50 in test [1] of 101 to 1000 nM. The same compound registered a concentration giving a half-maximal response (EC50) in test [2] of 10 to 100 nM.
In test [1], `c1cnc2[nH]c3c(c2c1)CCN(C1COC1)CC3` [Example 22, 7-(oxetan-3-yl)-5,6,7,8,9,10-hexahydropyrido[3′,2′:4,5]pyrrolo[2,3-d]azepine] registered an IC50 of more than 10000 nM. The compound also came in with an EC50 in test [2] of 1000 to 10000 nM.
Turning to `COc1ccc2c3c([nH]c2n1)CCN(C1COC1)CC3` [Example 4, 2-methoxy-7-(oxetan-3-yl)-5,6,7,8,9,10 hexahydropyrido[3′,2′:4,5]pyrrolo[2,3-d]azepine], the IC50 in test [1] is more than 10000 nM. In addition, the EC50 in test [2] was more than 10000 nM.
`Brc1ccc2c3c([nH]c2n1)CCNCC3` [Example 16, 2-bromo-5,6,7,8,9,10-hexahydropyrido[3′,2′:4,5]pyrrolo[2,3-d]azepine]: in test [1], the IC50 was in the range of 10 to 100 nM. In test [2], this compound gave an EC50 of less than 10 nM.
`Cn1c2c(c3cc(Cl)cnc31)CCN(C1COC1)CC2` [Example 29, 3-chloro-10-methyl-7-(oxetan-3-yl)-5,6,7,8,9,10-hexahydropyrido[3′,2′:4,5]pyrrolo[2,3-d]azepine]: the IC50 in test [1] lay within 1000 to 10000 nM. Further, the EC50 in test [2] fell in the range of 1000 to 10000 nM.
`Cn1c2c(c3cccnc31)CCN(C1COC1)CC2` [Example 23, 10-methyl-7-(oxetan-3-yl)-5,6,7,8,9,10-hexahydropyrido[3′,2′:4,5]pyrrolo[2,3-d]azepine] displayed an IC50 in test [1] of 1000 to 10000 nM. Also, in test [2], the EC50 was 1000 to 10000 nM.
Regarding `Clc1cnc2[nH]c3c(c2c1)CCNCC3` [Example 13, 3-chloro-5,6,7,8,9,10-hexahydropyrido[3′,2′:4,5]pyrrolo[2,3-d] azepine], the IC50 in test [1] was in the range of 10 to 100 nM. In test [2], the EC50 was less than 10 nM.
`Cn1c2c(c3cccnc31)CCNCC2` [Example 18, 10-methyl-5,6,7,8,9,10-hexahydropyrido[3′,2′:4,5]pyrrolo[2,3-d]azepine] returned an IC50 in test [1] of 10 to 100 nM. The concentration giving a half-maximal response (EC50) in test [2] is less than 10 nM.
On the same counts, the results for `CN1CCc2[nH]c3ncccc3c2CC1` [Example 20, 7-methyl-5,6,7,8,9,10-hexahydropyrido[3′,2′:4,5]pyrrolo[2,3-d]azepine] are 10 to 100 nM and 10 to 100 nM.
On the same counts, the results for `Brc1ccc2c3c([nH]c2n1)CCN(C1COC1)CC3` [Example 24, 2-bromo-7-(oxetan-3-yl)-5,6,7,8,9,10-hexahydropyrido[3′,2′:4,5]pyrrolo[2,3-d]azepine] are 101 to 1000 nM and 101 to 1000 nM.
As to `Clc1cnc2[nH]c3c(c2c1)CCN(C1COC1)CC3` [Example 27, 3-chloro-7-(oxetan-3-yl)-5,6,7,8,9,10-hexahydropyrido[3′,2′:4,5]pyrrolo[2,3-d]azepine], the IC50 in test [1] is 101 to 1000 nM. Besides, the EC50 in test [2] is 101 to 1000 nM.
Take `COc1ccc2[nH]c3c(c2n1)CCN(C)CC3` [Example 15, 2-methoxy-8-methyl-5,6,7,8,9,10-hexahydropyrido[2′,3′:4,5]pyrrolo[2,3-d]azepine]: the IC50 in test [1] was in the range of 10 to 100 nM. For the same compound, in test [2], the EC50 is 10 to 100 nM.
With `Cc1ccc2c3c([nH]c2n1)CCN(C)CC3` [Example 7, 2,7-dimethyl-5,6,7,8,9,10-hexahydropyrido[3′,2′:4,5]pyrrolo[2,3-d]azepine], the IC50 in test [1] is 101 to 1000 nM. This compound also showed an EC50 in test [2] of 101 to 1000 nM.
For the compound `Cn1c2c(c3ccc(Br)nc31)CCNCC2` [Example 25, 2-bromo-10-methyl-5,6,7,8,9,10-hexahydropyrido[3′,2′:4,5]pyrrolo[2,3-d]azepine], in test [1], the IC50 was in the range of 10 to 100 nM. Further, in test [2], the EC50 is less than 10 nM.
With `Cn1c2c(c3cc(Cl)cnc31)CCNCC2` [Example 28, 3-chloro-10-methyl-5,6,7,8,9,10-hexahydropyrido[3′,2′:4,5]pyrrolo[2,3-d]azepine], the IC50 in test [1] lay in the range of 10 to 100 nM. The same compound returned an EC50 in test [2] of 10 to 100 nM.
As for `COc1ccc2c3c([nH]c2n1)CCNCC3` [Example 2, 2-methoxy-5,6,7,8,9,10-hexahydropyrido[3′,2′:4,5]pyrrolo[2,3-d]azepine], the IC50 in test [1] lay in the range of 101 to 1000 nM. In test [2], this compound returned a 50% effective concentration (EC50) of 10 to 100 nM.
Compound `c1cnc2[nH]c3c(c2c1)CCNCC3` [Example 17, 5,6,7,8,9,10-hexahydropyrido[3′,2′:4,5] pyrrolo[2,3-d] azepine] gave an IC50 in test [1] of 10 to 100 nM. In test [2], this compound gave an EC50 of less than 10 nM.
In turn, `Cc1ccc2c3c([nH]c2n1)CCN(C1COC1)CC3` [Example 9, 2-methyl-7-(oxetan-3-yl)-5,6,7,8,9,10-hexahydropyrido[3′,2′:4,5]pyrrolo[2,3-d]azepine] displayed an IC50 in test [1] of more than 10000 nM. This compound gave an EC50 in test [2] of more than 10000 nM.
For `COc1ccc2c3c(n(C)c2n1)CCN(C)CC3` [Example 3, 2-methoxy-7,10-dimethyl-5,6,7,8,9,10-hexahydropyrido[3′,2′:4,5]pyrrolo[2,3-d]azepine], the IC50 in test [1] lay within 101 to 1000 nM. This compound displayed an EC50 in test [2] of 101 to 1000 nM.
As to `COc1ccc2c3c(n(C)c2n1)CCN(C1COC1)CC3` [Example 6, 2-methoxy-10-methyl-7-(oxetan-3-yl)-5,6,7,8,9,10-hexahydropyrido[3′,2′:4,5]pyrrolo[2,3-d]azepine], the IC50 in test [1] is 1000 to 10000 nM. In test [2], the EC50 lay within 101 to 1000 nM.
Taken in the same sequence, the figures for `COc1ccc2c3c(n(C)c2n1)CCNCC3` [Example 5, 2-methoxy-10-methyl-5,6,7,8,9,10-hexahydropyrido[3′,2′:4,5]pyrrolo[2,3-d]azepine] were 10 to 100 nM and 10 to 100 nM.
On the same counts, the results for `CN1CCc2[nH]c3ncc(Cl)cc3c2CC1` [Example 26, 3-chloro-7-methyl-5,6,7,8,9,10-hexahydropyrido[3′,2′:4,5]pyrrolo[2,3-d]azepine] are 10 to 100 nM and 10 to 100 nM.
On the same counts, the results for `Cc1ccc2c3c(n(C)c2n1)CCN(C)CC3` [Example 12, 2,7,10-trimethyl-5,6,7,8,9,10-hexahydropyrido[3′,2′:4,5]pyrrolo[2,3-d]azepine] are 101 to 1000 nM and 101 to 1000 nM.
Compound `CN1CCc2c(n(C)c3ncccc23)CC1` [Example 21, 7,10-dimethyl-5,6,7,8,9,10-hexahydropyrido[3′,2′:4,5]pyrrolo[2,3-d]azepine] registered an IC50 in test [1] of 10 to 100 nM. Also, the EC50 in test [2] lay in the range of 10 to 100 nM.
The compound `COc1cc2c3c([nH]c2cn1)CCN(C)CC3` [Example 14, 3-methoxy-7-methyl-5,6,7,8,9,10-hexahydropyrido[4′,3′:4,5]pyrrolo[2,3-d]azepine] came in with an IC50 in test [1] of more than 10000 nM. In test [2], this compound displayed an EC50 of more than 10000 nM.
